Results: publication PMC7106487, “Design, Synthesis and Discovery of N,N’‐Carbazoyl‐aryl‐urea Inhibitors of Zika NS5 Methyltransferase and Virus Replication” (Chemmedchem, 2020)
Where two headings read alike, the source gives them in different places.

Tests used:
host cell = experiment: in vitro; type: cell-based
Procedure: (§1) Finally, the ability of all the derivatives synthesized in this work to inhibit ZIKV replication was assessed. […]

in vitro [1] = type: cell-based; details: ZIKV CC50
Procedure: as §1

ZIKV = experiment: CPE-reduction assay, inhibition of ZIKV replication; parameters: species or system Zika virus (ZIKV); details: cell-based CPE-reduction assay; for EC50: Zika virus
Procedure: as §1

ZIKV NS5-MTase = biological target: T1, ZIKV NS5-MTase (Zika virus, UniProt Q32ZE1); experiment: MTase inhibition assay ([3H]-SAM, GpppAC4 RNA substrate, DEAE filter binding); type: biochemical; details: for inhibition at 50 µM / inhibition of ZIKV NS5-MTase: initial screen, compounds at 50 μM, 30 min at 30 °C
T1 construct: made in house
Procedure: (§2) The library of compounds 9, 11, 12, 14, 15, 16 and 21 was then assessed on different purified recombinant MTases. All compounds were initially screened at 50 μM against ZIKV NS5‐MTase and hRNMT as well as against DENV NS5‐MTase due to its similarity with ZIKV protein. The SAM mimetic sinefungin was included as control.
(§3) The MTases were incubated with radiolabeled [^3H]‐SAM together with the GpppAC4 RNA substrate and the different compounds at 50 μM. The reaction was stopped after 30 mins at 30 °C. The sample products were filtered on a DEAE membrane to remove non‐incorporated [^3H]‐SAM, and radioactivity transferred on the RNA substrate was counted. […]
(§4) DENV, ZIKV and hRNMT MTase production and purification
(§5) The coding sequence of the ZIKV MTase domain was cloned in pDest 14 (Invitrogen) expression vector as recently described,9 and the DENV and ZIKV MTase were produced and purified following the protocols applied for the DENV MTase.10 The human N7-MTase (hRNMT) was cloned in pDest 14 (Invitrogen) expression vector as described.11 The hRNMT was produced in e.coli Rosetta (DE3) cells transformed with pDest14/6His -hRNMT and purified on immobilized-metal-affinity chromatography (IMAC, Amersham Biosciences) followed by hearine, as described previously.11
(§6) The MTase activity of the different recombinant proteins was assayed upon pre -incubation of the MTase (5 min) with a selected fragment and the reactions were started by addition of a […]
(§7) small capped RNA substrate GpppAC4 with the [3H]AdoMet.12 The MTase activity assay was performed in 20 µl samples containing 40 mM Tris-HCl pH 7.5, 5 mM DTT (except for hRNMT), 10 µM AdoMet (0.2-2 µCi [3H]SAM), 1 µM of DENV or ZIKV MTase or 200 nM of hRNMT, 1 µM GpppAC4 in presence of 1µl of compounds solubilized in DMSO 100%.
(§8) Reactions were incubated at 30°C for 30 min and stopped by 20-fold dilution in an ice-cold 100 µM AdoHcy (SAH) solution. Samples were then transferred onto a DEAE membrane (DEAE Filtermat; Wallac) by using a Filtermat Harvester (Packard Instruments) washed with 0.01 M ammonium formate (pH 8.0), water and 95 % ethanol, and the radioactivity transferred onto RNA was measured using a Wallac 1450 MicroBeta Trilux Liquid Scintillation Counter.
(§9) The inhibitor concentration at 50% activity (IC50) was determined by performing the MTase assays in presence of serial dilution of the inhibitor in DMSO (final concentration in the assay 5%). All data points were measured in duplicate. The IC50 values were determined by curve fitting with Prism software using a logistic dose-response function: % activity = 100/(1+[I]/IC50)b, where b corresponds to the slope factor and [I] to inhibitor concentration. […]
(§10) Spectrometer using low-resolution ESI or high-resolution nano ESI techniques. The purity of the compounds was assessed by reverse -phase liquid chromatography coupled with a mass spectrometer (Agilent series 1100 LC/MSD) with a UV detector at λ = 254 nm and an electrospray ionization source (ESI). HPLC analysis was carried out using a Perkin -Elmer 1100 HPLC system coupled with UV/Vis set to 254 nm. Mass spectra were acquired in positive mode scanning over the mass range of 50–1500. The following ion source parameters were used: drying gas flow, […]; nebulize pressure, 40 psig; and drying gas temperature, 350 […]
(§11) performed using commercially available pre-coated plates and visualized with UV light at 254 nm; KMnO4 was used to reveal the products. Flash column chromatography was carried out using Sigma Aldrich silica gel particle size, 40-63 µm particle size 60 Å. All reactions were conducted under a nitrogen atmosphere in oven-dried glassware unless stated otherwise. All solvents and commercially available reagents were used as received.

hRNMT (human N7-MTase) = biological target: T2, hRNMT (human N7-MTase) (Homo sapiens, UniProt O43148); experiment: as above; type: biochemical; details: dose-response, 200 nM hRNMT, 10 µM AdoMet, 30 min at 30 °C
T2 construct: 6His (N); made in house; host or cells: E. coli Rosetta (DE3)
Procedure: as §2, §3, §4, §5, §6, §7, §8, §9, §10, §11

DENV = experiment: Cell-based antiviral activity against DENV; details: Dengue virus; cell-based assay
in vitro [2] = type: cell-based
DENV NS5-MTase = DENV NS5-MTase (Dengue virus type 3, UniProt P27915); experiment: MTase inhibition assay ([3H]-SAM, GpppAC4 RNA substrate, DEAE filter binding); type: biochemical; details: initial screen, compounds at 50 μM, 30 min at 30 °C
Procedure: as §2, §3, §4, §5, §6, §7, §8, §9, §10, §11

T1 sequence (Q32ZE1 2517-2781): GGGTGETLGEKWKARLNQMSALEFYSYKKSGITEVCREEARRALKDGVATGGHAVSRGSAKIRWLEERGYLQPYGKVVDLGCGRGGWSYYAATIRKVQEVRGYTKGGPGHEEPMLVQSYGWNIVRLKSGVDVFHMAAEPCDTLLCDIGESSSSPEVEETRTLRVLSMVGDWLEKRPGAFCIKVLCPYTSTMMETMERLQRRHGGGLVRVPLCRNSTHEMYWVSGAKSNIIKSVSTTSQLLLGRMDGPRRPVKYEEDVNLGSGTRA
T2 sequence (O43148 whole entry): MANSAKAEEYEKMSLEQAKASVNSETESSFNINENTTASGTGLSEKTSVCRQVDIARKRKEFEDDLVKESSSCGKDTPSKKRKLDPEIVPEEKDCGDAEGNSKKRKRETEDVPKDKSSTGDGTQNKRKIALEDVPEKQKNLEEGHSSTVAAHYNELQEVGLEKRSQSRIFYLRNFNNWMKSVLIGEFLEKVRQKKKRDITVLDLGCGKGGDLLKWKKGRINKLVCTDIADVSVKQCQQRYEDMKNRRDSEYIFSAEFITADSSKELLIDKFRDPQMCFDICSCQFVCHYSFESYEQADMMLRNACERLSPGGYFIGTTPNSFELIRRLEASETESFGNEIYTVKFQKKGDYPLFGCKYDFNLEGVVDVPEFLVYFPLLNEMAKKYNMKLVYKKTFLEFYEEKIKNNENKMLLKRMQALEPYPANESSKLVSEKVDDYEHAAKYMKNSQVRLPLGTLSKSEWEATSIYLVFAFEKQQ
DENV NS5-MTase, sequence (P27915 2491-2753): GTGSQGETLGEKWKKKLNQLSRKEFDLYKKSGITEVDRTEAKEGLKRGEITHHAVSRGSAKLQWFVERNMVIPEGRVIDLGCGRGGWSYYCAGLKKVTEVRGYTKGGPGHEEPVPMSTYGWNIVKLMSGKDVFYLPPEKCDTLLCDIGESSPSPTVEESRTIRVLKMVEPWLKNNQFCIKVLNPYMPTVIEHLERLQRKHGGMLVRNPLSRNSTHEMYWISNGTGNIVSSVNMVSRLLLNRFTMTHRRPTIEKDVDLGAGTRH

Compound	CC50 (in vitro [1]) [µM]	EC50 (ZIKV) [µM]	IC50 (ZIKV NS5-MTase) [µM]	inhibition at 50 µM (ZIKV NS5-MTase) [%]	IC50 (hRNMT (human N7-MTase)) [µM]	other results
CCn1c2ccccc2c2cc(NC(=O)Nc3ccc([N+](=O)[O-])cc3C)ccc21 [Compound 6]	> 3.99	> 3.99	35 ± 5	> 30	13.9 ± 0.7	CC50 (host cell): 3.99 µM; ZIKV EC50 (ZIKV): devoid of any antiviral activity
CCn1c2ccccc2c2cc(NC(=O)Nc3ccc([N+](=O)[O-])cc3Cl)ccc21 [Compound 9a]	30.7	> 50	46 ± 1.1	> 30	~122	
CCn1c2ccccc2c2cc(NC(=O)Nc3ccc(C#N)cc3)ccc21 [Compound 9b]	> 10	> 10	~144		~253	
CCn1c2ccccc2c2cc(NC(=O)Nc3ccc(OC)cc3OC)ccc21 [Compound 9c]	> 10	> 10			27.4 ± 1.9	
CCn1c2ccccc2c2cc(NC(=O)Nc3ccc(I)cc3)ccc21 [Compound 9d]	> 50	> 50	~397	> 30	5.3 ± 0.4	
CCn1c2ccccc2c2cc(NC(=O)Nc3ccc(C(F)(F)F)cc3)ccc21 [Compound 9f]					6.8 ± 0.5	
CCn1c2ccccc2c2cc(NC(=S)NCc3ccccc3)ccc21 [Compound 11b]	19.6	4.78	70 ± 1.3		~112	
CCn1c2ccccc2c2cc(NC(=O)Nc3ccc(N)cc3C)ccc21 [Compound 15]	> 12.5	1.67		25		EC50 (DENV): 9.75 µM; CC50 (in vitro [2]): 20 µM; inhibition of DENV NS5-MTase (DENV NS5-MTase): did not show any effect
CCn1c2ccccc2c2cc(NC(=O)C(N)CCCCN)ccc21 (stereo not shown) [Compound 16]						inhibition of ZIKV NS5-MTase (ZIKV NS5-MTase): barely inhibited
Cc1cc([N+](=O)[O-])ccc1NC(=O)Nc1ccc2c(c1)c1ccccc1n2CCc1ccccc1 [Compound 21b]	20	12.5	114 ± 1.3	> 30		ZIKV CC50 (host cell): showed toxicity
O=C(Nc1ccc(I)cc1)Nc1ccc2c(c1)c1ccccc1n2Cc1ccccc1 [Compound 21c]			23 ± 1.2	> 30		
O=C(Nc1ccc(I)cc1)Nc1ccc2c(c1)c1ccccc1n2CCc1ccccc1 [Compound 21d]	100	25				inhibition of ZIKV NS5-MTase (ZIKV NS5-MTase): poor inhibition
COc1ccc(NC(=O)Nc2ccc3c(c2)c2ccccc2n3Cc2ccccc2)c(OC)c1 [Compound 21e]			48 ± 1.3			
COc1ccc(NC(=O)Nc2ccc3c(c2)c2ccccc2n3CCc2ccccc2)c(OC)c1 [Compound 21f]	20	> 20	26 ± 1.2			ZIKV CC50 (host cell): showed toxicity
Nc1ncnc2c1ncn2[C@@H]1O[C@H](C[C@@H](N)CC[C@H](N)C(=O)O)[C@@H](O)[C@H]1O [Sinefungin, reference compound]			1.18 ± 0.05			
